Reference: a melting point compilation (Tetko et al.; mined from patent text by program, amines drawn as free bases though some values may be those of a salt)

melting point	Structure (SMILES)
147 to 148 °C	CON=Cc1ccc2c(c1)ncn2-c1cccc(-c2ccoc2)c1
245 °C	O=C(Nc1cccc(S(=O)(=O)N2CCCC2)c1)c1cnn2c(C(F)F)cc(-c3ccc(Cl)c(Cl)c3)nc12
149 to 151 °C	CN(C)CCNC(=O)c1ccc(C(Cc2ccc(F)cc2)C(=O)Nc2nc3ccccc3o2)cc1 (stereo not given)
260 °C	Cn1cncc1C(O)(c1ccc(Cl)cc1)c1ccc2c(c1)C(c1cccc(Cl)c1)OCC(=O)N2 (stereo not given)
157 to 159 °C	Nc1ccc2oc(-c3cccc(O)c3)cc(=O)c2c1
108 to 110 °C	N#Cc1cccnc1N1CCN(CC(=O)Nc2cc(F)cc(C(F)(F)F)c2)CC1
> 275 °C	Cc1ccc(-n2c(-c3sc(NC(=O)c4ccccc4)nc3-c3ccccc3)nc3ccccc3c2=O)cc1
> 250 °C	COc1cccc2c(OCc3ccc(C(C)C)cc3)ccc(C=NNC(=O)c3ccc(O)c(Cl)c3)c12
121 to 123 °C	COC(=O)c1cc(OC)cc2cc(-c3ccc(OC)c(F)c3)oc12
174 °C	CC(=O)Nc1ccc(Cl)cc1S(=O)(=O)CC#N
259 to 260 °C	O=C(Nc1ccc(C(F)(F)F)cc1)N1CC(NC(=O)C(F)(F)F)C(c2ccc(Cl)cc2)=N1 (stereo not given)
220 °C	Cc1ncc2c(c1OCC(=O)O)COC2c1ccccc1 (stereo not given)
189 to 190 °C	CNC(=O)c1cccc(NC(=O)NCc2ccccc2)c1
157 °C	COc1cc(F)ccc1C(=O)NCCN1CCC(O)(c2ccc(Cl)cc2)CC1
79 °C	CC(=O)SCC(=Cc1ccc(Oc2ccccc2)cc1)C(=O)NCCC(=O)OCc1ccccc1
105 to 108 °C	CC(C)(C)[Si](C)(C)Oc1ccc(NC(=O)CN2CCC(O)(Cc3ccccc3)CC2)cc1
109 to 111 °C	CCOC(=O)N1CCN(c2nn(-c3ccc(F)cc3)c3ccccc23)CC1
180 °C	Cc1cccc(NC(=O)NCC(=O)N(CC(=O)OC(C)(C)C)c2ccccc2)c1
173 °C	C=COC(=O)N=c1sc2cc(OC(F)(F)F)ccc2n1CCSC(C)=O
54 to 56 °C	CCOP(=O)(Cc1cccc(NC(=O)C2=Cc3cc(C4CCCCC4)ccc3CC2)c1)OCC
60 to 65 °C	CC(C)(C)[Si](C)(C)N1C(=O)CC1C(=O)NC(Cc1c[nH]c2ccccc12)C(=O)OCc1ccccc1 (stereo not given)
186 °C	CCN(CC)CCOc1ccc(Nc2ncc3c(n2)N(C)C(=O)N(C)C3)cc1

melting point	Structure (SMILES)
46 to 50 °C	O=[N+]([O-])c1ccc(C=Cc2ccccc2)cc1
76 to 81 °C	CC(C)(C)c1ccc(SN2CCOC2=O)cc1
102 to 104 °C	COc1cc(C(C)=O)ccc1OCCCN1CCC(c2noc3ccccc23)CC1
180 to 182 °C	O=C(O)C1CCc2c(c3ccccc3n2C(=O)c2cccs2)C1 (stereo not given)
87 to 88 °C	CCOC(=O)c1cc2ccc([Si](C)(C)C)cc2n1Cc1cccc(F)c1
94 to 95 °C	O=C(CCC(CSc1ccc2ccccc2c1)C(=O)O)OCc1ccccc1 (stereo not given)
141 to 143 °C	C=CCOc1ccc(C(=O)N[C@@H](C)c2cccc3ccccc23)cc1
150 to 160 °C	Cc1ccc(S(=O)(=O)N2CCCC2c2nnnn2[C@@](C)(Cc2ccc([N+](=O)[O-])cc2)C(=O)O)cc1 (stereo not given in full)
69 to 73 °C	COc1cccc(C(=C/C=C/C(=O)NCCCCc2cccnc2)c2cccc(OC)c2)c1
102 to 103 °C	Cc1oc(-c2ccccc2)nc1CCc1ccc(/C=C/CO)cc1
236 to 238 °C	NS(=O)(=O)c1ccc(-c2cnn(Cc3ccc(F)cc3F)c(=O)c2-c2ccc(F)cc2)cc1
171 to 174 °C	COC(=O)c1cccnc1C(=O)c1ccc(-n2ccnc2)cc1
148 to 149 °C	CNC1CN(C(=O)Nc2ccc(C(F)(F)F)cc2)N=C1c1ccc(Cl)cc1 (stereo not given)
230 to 232 °C	CC1(N2Cc3cc(CNC(=O)Cc4ccc(Cl)cc4)ccc3C2=O)CCC(=O)NC1=O (stereo not given)
105 to 107 °C	O=C(O)CCCCN1CCC(C(O)(c2ccc(F)cc2)c2ccc(F)cc2)CC1
62 to 63 °C	CN(C)CCCCOc1ccc(-c2nnc(CSCCOc3ccccc3)o2)cc1
> 250 °C	COc1ncc(Oc2ccc(Cl)cc2)c2cc(C(N)=O)sc12
142 to 144 °C	COc1ccc(C(=O)Nc2ccccc2)cc1NCc1ccccc1F
161 to 162 °C	COc1ccc(S(=O)(=O)Nc2ncnc(OCCO)c2Cc2ccccc2OC)cc1
128 to 130 °C	CCOC(=O)c1ccc(NCc2ccc(OC)cc2)cc1
73 to 75 °C	COC(=O)c1ccc(OC[C@H](C)N(C)C(=O)C(F)(F)F)cc1

Further lines, the compound ahead of its results:

Structure (SMILES)	melting point
CN(C)c1nc2sc3c(NCc4ccco4)ncnc3c2c2c1CCC2(C)C	89.3 to 91 °C
COc1ccc(C2=NN(C3CCN(C(=O)CCSCCN)CC3)C(=O)[C@@H]3CC=CC[C@H]23)cc1OC	137 to 139 °C
CCc1cccc(-n2ncc(C(=O)O)c2C(N)=O)c1	176 to 178 °C
COc1ccc(F)c(CC2CCN([C@H]3CC[C@H](c4ccc5c(c4)OCO5)CC3)CC2)c1	89 to 91 °C
COc1nc2ncnn2c(N2CCC(C)CC2)c1-c1ccc(F)cc1Cl	186 °C
Cc1noc(-c2ccccc2NC(=O)OC2CCNCC2)n1	141 to 142 °C
O=C(O)c1cc2sccc2cn1	212 °C
CC(CN(C(=O)c1ccco1)c1c(C)cccc1C)=NO	155 to 156 °C
CC(Oc1c(C(=O)O)cc(Cl)cc1[N+](=O)[O-])C(=O)O (stereo not given)	190 °C
CC(O)c1cc2c(o1)C(=O)c1cccc(O)c1C2=O (stereo not given)	148 to 149 °C
CCCC(=O)C(=C1NCCCS1)[N+](=O)[O-]	54 to 58.5 °C
CN(C)CCNc1ccc(NCCN(CCO)CCO)c2c1C(=O)c1c(O)ccc(O)c1C2=O	204 to 205 °C
Fc1cc2c(c(-c3c(Cl)cccc3Cl)c1)OC(CNCC1CC1)C2 (stereo not given)	130 to 133 °C
Cc1cc(C23CC4CC(CC(C4)C2)C3)ccc1NS(=O)(=O)c1cc([N+](=O)[O-])ccc1Cl	238 °C
O=[N+]([O-])c1nccn1CC(O)CN1C2CCCCCCC21 (stereo not given)	120 to 122 °C
COc1ccc(-c2cc(C)c(C(=O)O)c(C)c2)cc1OC	175 to 176 °C
O=C(O)CCCCc1nc(NCc2ccc3c(c2)OCO3)c2cc(Cl)sc2n1	130 °C
CC(Cl)OC(=O)Oc1c(Br)cc(C#N)cc1Br (stereo not given)	91 to 93 °C
COc1nc(C)c2c(c1C=O)CCCC2O (stereo not given)	107 °C

Structure (SMILES)	melting point
COCOc1c(CCO)c(OC)c(OCOC)c(CCCCCc2c(OC)c(OCOC)c(CCO)c(OC)c2OCOC)c1OC	68 to 70 °C
CC(C)(C)Cn1c(=O)c(C#N)c(N2CCN(C(=O)c3cccs3)CC2)c2cccnc21	232 °C
Nc1nc(N)c2ncn(CCC(CO)CO)c2n1	187 to 190 °C
CCOC(=O)N1CCC2C(C1)c1cccc3c1N2CC(=O)N3 (stereo not given)	167 to 168 °C
O=S1(=O)NCN(C2CCCCC2)c2cc(Cl)c(Cl)cc21	207 to 209 °C
Cn1cnc(COc2nc3c(cc2C(C)(C)C)nnn3-c2cc(F)ccc2F)n1	154 to 157 °C
CCc1nc(N)nc(N)c1CCCCc1cc(Cl)c(Cl)cc1Cl	158 to 163 °C
O=[N+]([O-])c1cc2nc(O)c(O)nc2c2nsnc12	> 300 °C
Nc1nc2c(ncn2CC(CO)CCO)c(=O)[nH]1 (stereo not given)	235 °C
C=C(CC(N)=O)C(=O)O	153 to 154 °C
C[C@H](NC(=O)OCc1ccccc1)C(=O)N[C@@H](C)C(=O)NC1CCCCC1	233 to 234 °C
CCS(=O)(=O)c1cc(C(C)(C)C)cc(C=O)c1O	92 to 93 °C
CCOC(=O)C1=C(C)NC(N)=C(C(=O)OCC)C1c1ccccc1C (stereo not given)	130 °C
Oc1ccc(CN2CC=CCC2)cc1O	> 300 °C
CCCc1c(OCCCCCCc2cc(O)c(O)c(C(C)C)c2)ccc(C(=O)O)c1O	138 to 140 °C
C=C(C)c1ccc(C2=NC(=O)C(C)(C(=C)C)N2)nc1 (stereo not given)	123 to 125 °C
CCOC(=O)C1(C(=O)Nc2ccc(Br)cc2C)CCC1	61 to 64 °C
CCc1[nH]n(C2CCCC2)c2nc(-c3cccc(OCCN4CCOCC4)c3)nc(=O)c1-2	173 to 176 °C
CCOC(=O)C=Cc1ccc(OC)c2c1CC1(CCCC1)O2	81 to 91 °C

Structure (SMILES)	melting point
CC(C)CNC(=O)[C@H](C)C[C@H](O)[C@H](CC1CCCCC1)NC(=O)[C@H](Cc1cscn1)NC(=O)OC(C)(C)C	178 to 180 °C
O=C(O)c1cccc(NCCOCc2ccccc2)c1C(=O)O	158 to 160 °C
CC(C)(C)c1cc(-c2cccs2)cc2c1OCC2(C)C	61 to 63 °C
Cc1nc2c(N)nc3ccccc3c2n1CCCCOCCCc1ccccc1	105 to 106 °C
CCC12CCC3=C(CCc4cc(OC)ccc43)C1CCC2O (stereo not given)	102 to 105 °C
CCCCCC(CC(=O)Nc1cc(CO)ccc1C(C)(C)C)c1ccc(OC)cc1OC (stereo not given)	125 to 126 °C
Cc1cncn1Cc1cc(C(C)(C)O)cc(C(C)(C)C#N)c1	128 to 131 °C
CC1COCc2nc3c(N)nc4ccc(OCc5cscn5)cc4c3n21 (stereo not given)	240 to 242 °C
C=CCSc1cc(C(=O)O)cc(S(=O)(=O)Cl)c1Oc1ccccc1	160 to 162 °C
C#CCOC(=O)C1=C(C)NC(C)=C(C(=O)OCC)C1c1cccc([N+](=O)[O-])c1 (stereo not given)	132 to 133 °C
CC(=O)NCC(=NNC(N)=S)c1ccccc1	208 to 211 °C
CC(C)(C)OC(=O)N(C[C@H](O)COc1ccc(O)cc1)C1CNC1	130 to 134 °C
CCOc1cc2cc3ncc(C#N)c(Nc4cc(OC)c(Cl)cc4C)c3cc2cc1OCCN1CCOCC1	195 to 196 °C
C[Si](C)(C)c1c(CCC=O)cnc2c1CCO2	59 to 60 °C
CN(C)C(=S)n1cnc(S(=O)(=O)CC2CCCC2)n1	65 °C
CC(CC=O)P(=O)(O)CCCCc1ccccc1 (stereo not given)	138 °C
OCn1nnc2ccccc21	148 °C
O=C(NC1CC1)c1ccc(N2CCN(Cc3cnc4c(c3)NC(=O)[C@@H]3CCCN43)CC2)cc1	265 to 268 °C
COC(=O)c1cc(C)nc(C)c1	45 to 47 °C
